Source: PubChem BioAssay (NCI)
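A five-concentration, 48-hour dose response in 96-well plates underlies each endpoint, interpolated linearly between surrounding concentrations. TGI: concentration producing complete growth inhibition.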

How the values were obtained:
Test in all cases: NCI anticancer screen, dose series, 48 h
[1] = system: 786-0 renal
[2] = system: A498 renal
[3] = system: A549 NSCLC
[4] = system: ACHN renal
[5] = system: CAKI-1 renal
[6] = system: CCRF-CEM leukemia
[7] = system: COLO 205 colon
[8] = system: DLD-1 colon
[9] = system: DMS 114 small cell lung
[10] = system: DMS 273 small cell lung
[11] = system: EKVX NSCLC
[12] = system: HCC-2998 colon
[13] = system: HCT-116 colon
[14] = system: HCT-15 colon
[15] = system: HL-60(TB) leukemia
[16] = system: HOP-18 NSCLC
[17] = system: HOP-62 NSCLC
[18] = system: HOP-92 NSCLC
[19] = system: HT29 colon
[20] = system: IGROV1 ovarian
[21] = system: K-562 leukemia
[22] = system: KM20L2 colon
[23] = system: LXFL 529 NSCLC
[24] = system: M14 melanoma
[25] = system: M19-MEL melanoma
[26] = system: MALME-3M melanoma
[27] = system: MOLT-4 leukemia
[28] = system: NCI-H23 lung
[29] = system: NCI-H460 lung
[30] = system: NCI-H522 lung
[31] = system: OVCAR-3 ovarian
[32] = system: OVCAR-4 ovarian
[33] = system: OVCAR-5 ovarian
[34] = system: OVCAR-8 ovarian
[35] = system: RPMI-8226 leukemia
[36] = system: RXF 393 renal
[37] = system: RXF-631 renal
[38] = system: SF-268 CNS
[39] = system: SF-295 CNS
[40] = system: SF-539 CNS
[41] = system: SK-MEL-2 melanoma
[42] = system: SK-MEL-28 melanoma
[43] = system: SK-MEL-5 melanoma
[44] = system: SK-OV-3 ovarian
[45] = system: SN12C renal
[46] = system: SNB-19 CNS
[47] = system: SNB-75 CNS
[48] = system: SNB-78 CNS
[49] = system: SW-620 colon
[50] = system: TK-10 renal
[51] = system: U251 CNS
[52] = system: UACC-257 melanoma
[53] = system: UACC-62 melanoma
[54] = system: UO-31 renal
[55] = system: XF 498 CNS
[56] = system: KM12 colon
[57] = system: LOX IMVI melanoma
[58] = system: SR leukemia

Measured: TGI

c1ccc2c3c([nH]c2c1)[C@H]1C2CCCCN2CN1CC3 (stereo not given in full)
not listed: [56] | [57] | [58]
> 100 µM: all other assays above

CC(=O)c1c2c(cc3c1CC1(C3)Cc3cc4c(c(C(C)=O)c3C1)CCC4)CCC2
not listed: [2] | [10] | [11] | [14] | [22] | [35] | [41] | [44]
> 100 µM: all other assays above
